The source made the active and inactive calls. No cut-off for these calls is given here.

Our source for the inhibition and Activity values is ChEMBL document CHEMBL4330166, “Euphorhelipanes A and B, Triglyceride-Lowering Euphorbia Diterpenoids with a Bicyclo[4.3.0]nonane Core from Euphorbia helioscopia” (J Nat Prod, 2019).

Data set [1] concerns Huh-7. The experiment in a line: Inhibition of oleic acid-induced triglyceride accumulation in human HuH7 cells after 24 hrs. The data set is classed as functional, cell-based.
Data set [2] has as its system Huh-7. In words: Inhibition of oleic acid-induced triglyceride accumulation in human HuH7 cells up to 50 uM after 24 hrs by Oil Red O staining based assay. It counts as functional, cell-based.
In data set [3] the test system is Huh-7. The experiment in a line: Cytotoxicity against human HuH7 cells after 24 hrs by LDH release assay. It counts as cell-based. The note with it: huh-7, 24 h. (LDH leaks from cells whose membrane has failed.)

Consider `CC(=O)C(C)(C)/C=C/[C@@H](C)[C@@]1(O)C(=O)[C@H]2[C@@H](C=C[C@@H]2C)[C@H](C)[C@@H]1O`, for which the inhibition result in data set [1] is “Dose-dependent effect”. The inhibition result in data set [2] is “Active”. The Activity result in data set [3] is “Non-Toxic”.
For `CC(=O)C(C)(C)/C=C/[C@H](C)[C@@]1(O)C(=O)[C@H]2[C@@H](C=C[C@@H]2C)[C@H](C)[C@@H]1O` the same measures were “Dose-dependent effect”, “Active” and “Non-Toxic”.
